We go through 25 molecules from PubChem BioAssay AID328 (DTP/NCI, 2004).

Several values for one entry are separate records, joined by “and”; a condition that tells them apart may be missing. Equal entries are not always repeated. Inconclusive results and toxic doses are left out.

The assay deals with BDF1 mice, P388 leukemia ip, median survival T/C. Briefly: NCI In Vivo Anticancer Drug Screen. Data for tumor model P388 Leukemia (intraperitoneal) in B6D2F1 (BDF1) mice. To be noted: endpoint: median survival time, higher = longer survival. The method in brief: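 Mice carrying the transplantable tumour receive compound or vehicle. Survival is followed in each arm, and the treated measure is divided by the vehicle measure.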

Setting [1] is: dose: 50.0 mg/kg/injection, schedule: Q01DX009 (ip), vehicle: saline.
Setting [2] is: dose: 100.0 mg/kg/injection, schedule: Q01DX009 (ip), vehicle: saline.
Where [3] appears, read: dose: 100.0 mg/kg/injection, schedule: Q04DX003 (ip), vehicle: saline.
Where [4] appears, read: dose: 200.0 mg/kg/injection, schedule: Q01DX009 (ip), vehicle: saline.
Where [5] appears, read: dose: 200.0 mg/kg/injection, schedule: Q04DX003 (ip), vehicle: saline.
The mark [6] stands for this setting: dose: 400.0 mg/kg/injection, schedule: Q04DX003 (ip), vehicle: saline.
[7] abbreviates: dose: 100.0 mg/kg/injection, schedule: Q01DX009 (ip), vehicle: saline with Tween-80.
Where [8] appears, read: dose: 100.0 mg/kg/injection, schedule: Q04DX003 (ip), vehicle: Klucel (hydroxypropylcellulose) (HPC).
Setting [9] is: dose: 200.0 mg/kg/injection, schedule: Q01DX009 (ip), vehicle: saline with Tween-80.
Where [10] appears, read: dose: 200.0 mg/kg/injection, schedule: Q04DX003 (ip), vehicle: Klucel (hydroxypropylcellulose) (HPC).
Where [11] appears, read: dose: 400.0 mg/kg/injection, schedule: Q01DX009 (ip), vehicle: saline with Tween-80.
The mark [12] stands for this setting: dose: 400.0 mg/kg/injection, schedule: Q04DX003 (ip), vehicle: Klucel (hydroxypropylcellulose) (HPC).
Where [13] appears, read: dose: 12.5 mg/kg/injection, schedule: Q01DX009 (ip), vehicle: Klucel (hydroxypropylcellulose) (HPC).
The mark [14] stands for this setting: dose: 25.0 mg/kg/injection, schedule: Q01DX009 (ip), vehicle: Klucel (hydroxypropylcellulose) (HPC).
Setting [15] is: dose: 50.0 mg/kg/injection, schedule: Q01DX009 (ip), vehicle: saline with Tween-80.
[16] abbreviates: dose: 100.0 mg/kg/injection, schedule: Q01DX009 (ip), vehicle: Klucel (hydroxypropylcellulose) (HPC).
Setting [17] is: dose: 200.0 mg/kg/injection, schedule: Q01DX009 (ip), vehicle: Klucel (hydroxypropylcellulose) (HPC).
The mark [18] stands for this setting: dose: 400.0 mg/kg/injection, schedule: Q01DX009 (ip), vehicle: Klucel (hydroxypropylcellulose) (HPC).
The mark [19] stands for this setting: dose: 50.0 mg/kg/injection, schedule: Q04DX003 (ip), vehicle: saline with Tween-80.
The mark [20] stands for this setting: dose: 100.0 mg/kg/injection, schedule: Q04DX003 (ip), vehicle: saline with Tween-80.
The mark [21] stands for this setting: dose: 200.0 mg/kg/injection, schedule: Q04DX003 (ip), vehicle: saline with Tween-80.
The mark [22] stands for this setting: dose: 400.0 mg/kg/injection, schedule: Q04DX003 (ip), vehicle: saline with Tween-80.

Consider `NC(N)=Nc1ccc(C(=O)Nc2ccc([N+](=O)[O-])cc2)cc1`, for which the T/C is, setting by setting: under setting [1], 101 % of control; under setting [2], 103 % of control; under setting [3], 97 % of control; under setting [4], 91 % of control; under setting [5], 91 % of control; under setting [6], 100 % of control.
Turning to `COc1ccc(/C=N/n2c(C)cc(C)c(C#N)c2=O)c(OC)c1OC`, the T/C by setting is: under setting [7], 100 % of control; under setting [8], 115 % of control; under setting [9], 86 % of control; under setting [10], 100 % of control; under setting [11], 113 % of control; under setting [12], 100 % of control.
`CN1CCC2=C(C1)C(N1CCCCC1)CS(=O)(=O)O2` (stereo not given): the T/C (dose: 25.0 mg/kg/injection, schedule: Q04DX002 (ip), vehicle: saline) is 93 % of control; the T/C (dose: 50.0 mg/kg/injection, schedule: Q04DX002 (ip), vehicle: saline) was 97 % of control; the T/C (dose: 100.0 mg/kg/injection, schedule: Q04DX002 (ip), vehicle: saline with Tween-80) was 93 % of control.
On to `CCOc1ccn(CC(=O)N2CCOCC2)c(=O)n1`, for which the T/C (dose: 100.0 mg/kg/injection, schedule: Q01DX009 (ip), vehicle: water) was 103 % of control; the T/C (dose: 200.0 mg/kg/injection, schedule: Q01DX009 (ip), vehicle: water) is 105 % of control; the T/C (dose: 400.0 mg/kg/injection, schedule: Q01DX009 (ip), vehicle: water) was 97 % of control.
With `O=[N+]([O-])c1cc(S(=O)(=O)OCC2CO2)ccc1Cl` (stereo not given), the T/C reads like this: (dose: 6.25 mg/kg/injection, schedule: Q01DX009 (ip), vehicle: Klucel (hydroxypropylcellulose) (HPC)) 100 % of control; (dose: 12.0 mg/kg/injection, schedule: Q04DX003 (ip), vehicle: Klucel (hydroxypropylcellulose) (HPC)) 95 % of control; under setting [13], 105 % of control; under setting [14], 120 % of control; under setting [8], 108 % of control.
In the case of `O=C(O)/C(Cl)=C(Cl)\C=N\Nc1ccccc1`, the T/C (dose: 200.0 mg/kg/injection, schedule: Q04DX002 (ip), vehicle: saline with Tween-80) is 98 % of control.
As to `CC(C)(C)C(=O)CC(O)(C(F)(F)Cl)C(F)(F)Cl`, the T/C under setting [7] was 100 % of control and the T/C under setting [9] is 100 % of control.
On to `Oc1c(Cl)cc(Cl)cc1C=Nc1cc(C(F)(F)F)ccc1NCc1ccccc1`, for which the T/C was 93 % of control under setting [15], 89 % of control under setting [7] and 94 % of control under setting [9].
Take `Cc1c(C(=O)O)nc(CC(O)C(Cl)(Cl)Cl)[nH]c1=O` (stereo not given): the T/C was 98 % of control (dose: 25.0 mg/kg/injection, schedule: Q04DX003 (ip), vehicle: Klucel (hydroxypropylcellulose) (HPC)); 97 % of control (dose: 50.0 mg/kg/injection, schedule: Q04DX003 (ip), vehicle: Klucel (hydroxypropylcellulose) (HPC)); 103 % of control under setting [8]; 100 % of control under setting [10]; 96 % of control under setting [12].
For `FC(F)(F)c1cc(CN(CCCl)CCCl)cc(C(F)(F)F)c1`, the T/C is, setting by setting: under setting [13], 101 % of control; (dose: 12.5 mg/kg/injection, schedule: Q01DX009 (ip), vehicle: other) 116 % of control; (dose: 12.5 mg/kg/injection, schedule: Q01DX009 (ip), vehicle: saline) 100 % of control; under setting [14], 108 % of control and 120 % of control; (dose: 25.0 mg/kg/injection, schedule: Q01DX009 (ip), vehicle: saline) 188 % of control; (dose: 50.0 mg/kg/injection, schedule: Q01DX009 (ip), vehicle: other) 150 % of control. Besides, the T/C is, setting by setting: under setting [1], 172 % of control; under setting [16], 153 % of control and 165 % of control; under setting [2], 194 % of control.
As to `COC(=O)C1CCN1C(C)(C)C` (stereo not given), the T/C reads like this: under setting [3], 100 % of control; under setting [5], 90 % of control; under setting [6], 90 % of control.
Consider `CC1(C)SC(=S)N(c2ccc([N+](=O)[O-])cc2)C1=O`, for which the T/C (dose: 75.0 mg/kg/injection, schedule: Q01DX009 (ip), vehicle: saline with Tween-80) was 115 % of control; the T/C (dose: 150.0 mg/kg/injection, schedule: Q01DX009 (ip), vehicle: saline with Tween-80) was 113 % of control; the T/C (dose: 300.0 mg/kg/injection, schedule: Q01DX009 (ip), vehicle: saline with Tween-80) was 96 % of control.
Turning to `COc1ccc(C(=NO)c2ccc(OC)cc2)cc1`, the T/C is, setting by setting: under setting [16], 109 % of control; under setting [2], 100 % of control and 109 % of control; under setting [17], 118 % of control; under setting [4], 105 % of control and 109 % of control; under setting [18], 118 % of control; (dose: 400.0 mg/kg/injection, schedule: Q01DX009 (ip), vehicle: saline) 120 % of control.
As to `Cc1cc(=O)[nH]c2c1CCC2`, the T/C was 109 % of control under setting [15]; 100 % of control under setting [19]; 90 % of control under setting [7]; 100 % of control under setting [20]; 104 % of control under setting [9]; 100 % of control under setting [21].
As to `C=C(COC(C)(C)C)CN(C)C`, the T/C is 92 % of control (dose: 25.0 mg/kg/injection, schedule: Q01DX009 (ip), vehicle: acetone); 100 % of control (dose: 50.0 mg/kg/injection, schedule: Q01DX009 (ip), vehicle: acetone); 96 % of control (dose: 100.0 mg/kg/injection, schedule: Q01DX009 (ip), vehicle: acetone).
`CCc1ccc(NC(=O)c2cccc(Cl)c2)cc1`: the T/C runs as follows: under setting [20], 109 % of control; under setting [21], 109 % of control; under setting [22], 109 % of control.
Consider `COc1ccc(OC)c(/C=C/c2ccc3ccccc3n2)c1`, for which the T/C runs as follows: under setting [19], 105 % of control; under setting [20], 100 % of control and 105 % of control; under setting [21], 110 % of control; under setting [22], 100 % of control.
Turning to `NC(CC1=CCC=CC1)C(=O)O` (stereo not given), the T/C by setting is: under setting [1], 96 % of control and 113 % of control; under setting [2], 117 % of control.
As for `OC(CC1CCCCN1)c1ccccc1` (stereo not given), the T/C runs as follows: (dose: 12.5 mg/kg/injection, schedule: Q01DX009 (ip), vehicle: saline with Tween-80) 99 % of control; (dose: 25.0 mg/kg/injection, schedule: Q01DX009 (ip), vehicle: saline with Tween-80) 99 % of control; under setting [15], 94 % of control and 110 % of control.
As for `O=C1C(=C2CCCCC2)SC(=S)N1c1ccccc1`, the T/C under setting [15] is 106 % of control, the T/C under setting [7] is 103 % of control and the T/C under setting [9] was 103 % of control.
For the molecule `CC(=O)CC(=O)N1CCCCCC1`, the T/C under setting [7] was 89 % of control; the T/C under setting [20] is 109 % of control; the T/C under setting [9] is 92 % of control; the T/C under setting [21] was 90 % of control; the T/C under setting [11] was 107 % of control; the T/C under setting [22] was 104 % of control.
`CC1(C)c2c3ccccc3cc3cccc(c23)[S+]1c1ccccc1` (stereo not given): under “dose: 10.0 mg/kg/injection, schedule: Q01DX009 (ip), vehicle: saline with Tween-80”, the T/C was 120 % of control.
`CCOC(C[Se][Se]CC(OCC)OCC)OCC`: the T/C is 99 % of control (dose: 1.56 mg/kg/injection, schedule: Q01DX009 (ip), vehicle: saline); 102 % of control (dose: 3.13 mg/kg/injection, schedule: Q01DX009 (ip), vehicle: saline); 102 % of control (dose: 6.25 mg/kg/injection, schedule: Q01DX009 (ip), vehicle: saline).
As for `O=C1NC(c2ccc3ccccc3n2)Nc2ccccc21` (stereo not given), the T/C is, setting by setting: under setting [16], 105 % of control; under setting [17], 100 % of control; under setting [18], 110 % of control.
On to `S=C1N(c2ccccc2)CN(C2CCCCC2)CN1c1ccccc1`, for which the T/C is 89 % of control under setting [15], 90 % of control under setting [7] and 89 % of control under setting [9].
